Reference: patent EP3833345B1, “SMALL MOLECULE-INHIBITORS OF 6-PHOSPHOFRUCTO-1-KINASE FOR REDUCING LACTATE GENERATION BY CANCER CELLS” (Kemijski Institut, priority 2018, dated 2020)
“Also recorded” adds a separate entry of the source.

Tests used:
Jurkat cells [1] = experiment: lactate excretion by Jurkat cells (enzymatic L-lactic acid kit); type: cell-based, human
Procedure: The cells were incubated in 1 mL volume (24 well plates) at 5% CO2 and 37°C. The inhibitors were added in 100 µM concentration. As a control, equivalent amount of DMSO as used for the addition of inhibitors was supplemented to the medium. The tests started with 1×10^5 cells per mL. Extracellular lactate excreted by the Jurkat cells was measured in the supernatant of the growth medium after the cells were removed by centrifugation at 1500 rpm for 5 minutes. Lactate concentration was determined enzymatically using L-Lactatic acid kit (K-LATE, Megazyme, Ireland).
Measurements of lactate excretion in the tumorigenic Jurkat cells and the cells treated with two selected inhibitors at different concentrations were repeated by more detailed measurements. The growth conditions were identical to those described in Experiment 2. No significant difference in lactate excretion could be observed by the treated and untreated cells during the initial stage of growth that lasted for approximately 12 hours. Later on lactate excretion by the Jurkat cells ceased in the presence of both inhibitors.

Jurkat cells [2] = experiment: growth and survival of Jurkat cells (Countess, Trypan blue); type: cell-based
Procedure: The effects of both inhibitors were tested also on growth of the non-adherent Jurkat cells. Total amount of cells and the number of dead cells was determined by the Countess (Invitrogen, Carlsbad, CA). […].

MDA-MB-231 cells [3] = experiment: cytotoxicity in MDA-MB-231 cells (LDH kit); type: cell-based; settings: for average percentages of dead cells, MDA-MB-231, sequential re-insertion: sequential addition at 24-hour intervals, 92 hours, average over medium without and with inhibitor; for average percent of dead MDA-MB-231 cells: single addition, average over control and different concentrations of inhibitor
Procedure: (§1) Lactate generation, growth yield and survival under normal and inhibitory conditions of three different tumorigenic cells lines were determined in more detailed measurements. […] Cytotoxicity was measured by the Lactate dehydrogenase (LDH) kit (Roche).
Inhibitors No. 23, 29, 30 and 31 were tested for preventing lactate generation by the MDA-MB-231 cells.

Caco-2 cells [4] = experiment: cytotoxicity in Caco-2 cells (lactate dehydrogenase (LDH) kit); type: cell-based; settings: for average percent of dead cells, Caco-2: single addition, average over control and different concentrations of inhibitor
Procedure: as §1

Jurkat cells [5] = experiment: long-term fed-batch cultivation of Jurkat cells (18 days); settings: 100 µM, fed-batch, 18 days
Jurkat cells [6] = experiment: Seahorse XF assay (ECAR and OCR) in Jurkat cells; type: cell-based, human
Procedure: The efficiency of Inhibitors No. 3 and No. 9 was also tested by the determinations of glycolytic capacities in Jurkat cells in the presence and absence of inhibitors. For this purpose, Seahorse XF assay (Agilent Technology) was performed that enables non-destructive measurements of extracellular acidification rate (ECAR) and oxygen consumption rate (OCR) of tested cells. The cells were incubated in […] GlutaMAX medium with 10% FBS and 24 hours before the experiment inhibitors were added (100 µM). Non-adherent Jurkat cells (1×10^6 per mL) were stuck to the bottom of the wells by poly-I-lysine. The experiment was conducted essentially as recommended by Seahorse XF protocol and after 20 minutes of incubation, 1 µM of oligomycin A (ATP synthase inhibitor) and 0,25 µM of Carbonyl cyanide-4-(trifluoromethoxy)phenylhydrazone (FCCP) (mitochondrial oxidative phosphorylation uncoupler) were added to the cells. […] Reduced lactate excretion by the cells treated with both inhibitors might be responsible for reduced ECARs. Although the addition of oligomycin A and FCCP increased the extracellular acidification rate by the cells treated with both inhibitors, similar increase of ECAR was also observed in the untreated cells. […] It implies that inhibited PFK1 enzymes might reduce glycolytic flux and prevent the need for pyruvate reduction into lactate by re-oxidizing redundant cytosolic NADH. Under such conditions pyruvate can enter mitochondria, replenishing tri-carboxylic acids (TCA) cycle and fuelling oxidative respiration.

COLO 829 cells [7] = experiment: cytotoxicity in COLO 829 cells (LDH kit); type: cell-based; settings: for average percentages of dead cells, COLO 829, sequential re-insertion: sequential addition at 24-hour intervals, 92 hours, average over medium without and with inhibitor; for average percent of dead COLO 829 cells: single addition, average over control and different concentrations of inhibitor
Procedure: as §1

Jurkat cells [8] = experiment: NADH levels in Jurkat cells (NADH/NAD fluorometric assay kit); type: cell-based, human; settings: 24 hours after addition, different concentrations
Procedure: By inhibiting modified PFK-M enzyme in the cancer cells, glycolytic flux should be decreased and concomitantly NADH levels reduced. To verify that, the amounts of reduced pyridine nucleotide was measured by NADH/NAD fluorometric assay kit (Abcam). The Jurkat cells were seeded into the wells of 96 wells plate at 5×10^5 cells per mL. The untreated cells (control) and the cells with specified amounts of added Inhibitors No. 3 and No. 9 were incubated for 24 hours.

COLO 829 cells [9] = experiment: lactate excretion by COLO 829 cells; type: cell-based; settings: for lactate formation in COLO 829 cells, sequential re-insertion: inhibitor added 8 hours after inoculation, then at 24-hour intervals, low concentrations (from 10 µM)
Procedure: (§2) Preliminary in vivo tests were run by measuring lactate production by three different tumorigenic cell lines. Again, 100 µM concentrations of tested compounds have been added to the medium. For the experiment, the following tumorigenic cells lines originating from different tumours were tested: Caco-2 cells (Figure 10a), originating from colorectal adenoma carcinoma; COLO 829 cells (Figure 10b), isolated from melanoma; and MDA-MB-231 cells (Figure 10c) derived from metastatic phase of mammary/breast cancer. All adherent cell lines were grown in the RPMI 1640 GlutaMAX substrate (Thermo Fisher) supplemented with 10% FBS.
On the basis of preliminary results, inhibitors No. 23, 29, 30 and 31 were tested on COLO 829 cells. […] No significant discrepancies of total cell numbers in respect to the control were observed due to the different concentrations of inhibitors in the medium (Figure 13e). The average percent of dead COLO 829 cells in the control and in the presence of different concentrations of inhibitors were as follows: inh. 23 (9,23±0,6%), inh. 29 (9,31±0,73%), inh. 30 (8,27±0,49%), inh. 31 (8,26±0,38%). Additionally, cytotoxicity of inh. 3 (5,01±1,08%) and 9 (3,65±0,78%) for COLO 829 cells were also determined. No dose dependent decrease of survival was observed by any inhibitor.
(§3) A decrease in inhibitory effectiveness of some compounds was observed after certain period of time (Example 11). […] Therefore, the influence of selected inhibitors was assessed by sequential re-insertion of low concentrations of inhibitors at indicated time points. The inhibitors were first added to the medium 8 hours after the inoculation followed by periodically additions at 24-hour intervals (marked by arrows).
No significant cytostatic (Figure 16f) of cytotoxic effect of inhibitors could be detected after 92 hours of incubation despite of sequential addition of various concentrations of inhibitors. The following average percentages of dead cells were perceived in the medium without and media with inh. 3 (1,95±0,15%) inh. 9 (1,70±0,14%), inh. 23 (2,40±0,09%), inh. 29 (1,66±0,25%) and inh. 30 (1,38±0,18%). No detrimental effects of increased inhibitors concentrations on cell deaths have been observed.

Caco-2 cells [10] = experiment: total cell numbers of Caco-2 cells at end of incubation; type: cell-based; settings: single addition, end of incubation (92 hours)
Procedure: as §1

[11] = molecular target: T1, modified (70 kDa) 6-phosphofructo-1-kinase (PFK-L), sfPFK-L (Homo sapiens, UniProt P17858); experiment: in vitro inhibition of purified recombinant modified PFK-L fragment
T1 sequence (P17858 1-645 limits assumed): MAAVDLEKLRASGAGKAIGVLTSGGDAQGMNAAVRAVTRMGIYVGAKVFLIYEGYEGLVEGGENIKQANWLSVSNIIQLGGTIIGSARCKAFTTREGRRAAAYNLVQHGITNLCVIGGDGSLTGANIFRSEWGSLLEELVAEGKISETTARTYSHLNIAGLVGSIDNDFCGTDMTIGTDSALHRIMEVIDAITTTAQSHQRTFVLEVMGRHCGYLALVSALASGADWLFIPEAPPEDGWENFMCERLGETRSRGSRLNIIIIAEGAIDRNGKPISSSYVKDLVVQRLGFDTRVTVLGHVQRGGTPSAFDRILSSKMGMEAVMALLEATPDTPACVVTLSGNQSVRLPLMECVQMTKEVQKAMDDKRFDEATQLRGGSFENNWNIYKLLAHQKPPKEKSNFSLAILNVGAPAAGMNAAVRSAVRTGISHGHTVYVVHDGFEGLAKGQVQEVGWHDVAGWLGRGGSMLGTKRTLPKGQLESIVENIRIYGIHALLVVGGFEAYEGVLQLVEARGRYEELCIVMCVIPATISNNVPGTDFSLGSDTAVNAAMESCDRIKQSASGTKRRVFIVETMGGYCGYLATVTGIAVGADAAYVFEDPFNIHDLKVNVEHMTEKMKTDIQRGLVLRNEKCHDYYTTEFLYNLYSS

MDA-MB-231 cells [12] = experiment: lactate excretion by MDA-MB-231 cells; type: cell-based; settings: single addition, different concentrations
Procedure: as §2
Inhibitors No. 23, 29, 30 and 31 were tested for preventing lactate generation by the MDA-MB-231 cells. […] No significant discrepancies of total cell numbers were observed (Figure 14e) due to the different concentrations of inhibitors in the medium. […] The average percent of dead MDA-MB-231 cells in the control and in the presence of different concentrations of inhibitors were as follows: inh. 23 (2,98±0,2%), inh. 29 (3,37±0,39%), inh. 30 (3,4±0,21%), inh. 31 (6,87±0,44%). Additionally, cytotoxicity of inh. 3 (7,2±0,47%) and 9 (6,59±0,29%) for MDA-MB-231 cells were also determined. No dose dependent decrease of survival was observed by any inhibitor.
as §3
In MDA-MB-231 calls similar results to those found in Caco-2 cells were observed. […] No significant cytostatic (Figure 17f) or cytotoxic effect of inhibitors could be detected after 92 hours of incubation despite of sequential addition of various concentrations of inhibitors. The following average percentages of dead cells were perceived in the medium without and with inh. 3 (2,05±0,18%), inh. 9 (1,85±0,05%), inh. 23 (2,20±0,15%), inh. 29 (1,54±0,16%) and inh. 30 (2,00±0,18%). No detrimental effects of increased inhibitors concentrations on cell deaths have been observed.

Caco-2 cells [13] = experiment: lactate excretion by Caco-2 cells; type: cell-based; settings: single addition, different concentrations (20-80 µM)
Procedure: as §2, with “Again, 100 µM concentrations of tested compounds have been added to the medium.” left out, “cancer.” for “cancer. All adherent cell lines were grown in the RPMI 1640 GlutaMAX substrate (Thermo Fisher) supplemented with 10% FBS.”
as §1
Therefore, the influence of selected inhibitors was assessed by sequential re-insertion of low concentrations of inhibitors at indicated time points. The inhibitors were first added to the medium 8 hours after the inoculation followed by periodically additions at 24-hour intervals (marked by arrows).

Compound | average percentages of dead cells, MDA-MB-231, sequential re-insertion (MDA-MB-231 cells [3]) | average percent of dead MDA-MB-231 cells (MDA-MB-231 cells [3]) | average percent of dead cells, Caco-2 (Caco-2 cells [4]) | average percentages of dead cells, COLO 829, sequential re-insertion (COLO 829 cells [7]) | average percent of dead COLO 829 cells (COLO 829 cells [7]) | lactate formation in COLO 829 cells, sequential re-insertion (COLO 829 cells [9]) | IC50 [11] | also measured
COc1ccc(-c2cccc(-c3ccn(Cc4noc(C)n4)n3)c2)nn1 [Inhibitor No. 9, 3-methoxy-6-(3-{1-[(5-methyl-1,2,4-oxadiazol-3-yl)methyl]-1H-pyrazol-3-yl}phenyl)pyridazine] | 1,85±0,05% | 6,59±0,29% | 3,33±0,14% | 1,70±0,14% | 3,65±0,78% | strong reduction of lactate formation | – | time at which lactate production was averted (Jurkat cells [1]; inhibitor concentrations lower than 200 µM): 36 h; lactate excretion by the Jurkat cells (Jurkat cells [1]; preliminary test, 100 µM inhibitor, followed for 48 hours, versus DMSO control): Significantly lowered lactate excretions; also recorded: effectively prevented excretion; dead cells (Jurkat cells [2]; Jurkat cells stained with Tripan blue): 3,76±0,3%; effect on growth of Jurkat cells (total cell numbers) (Jurkat cells [2]; different concentrations, 72 hours): no effect; average percentages of dead cells, Caco-2, sequential re-insertion (Caco-2 cells [4]; sequential addition at 24-hour intervals, 92 hours, average over medium without and with inhibitor): 5,05±0,62%; viability of the Jurkat cells, long-term (Jurkat cells [5]): remained unchanged; number of cells, long-term (Jurkat cells [5]; fresh medium with inhibitor every 48 hours): steadily declined; ECAR and OCR values prior to the addition of oligomycin A and FCCP (Jurkat cells [6]; 100 µM added 24 hours before the experiment, treated versus untreated cells): untreated Jurkat cells revealed higher ECAR and OCR values; oxygen consumption rate after addition of oligomycin A and FCCP (Jurkat cells [6]; 100 µM, 1 µM oligomycin A and 0,25 µM FCCP, versus untreated cells): slightly stronger affect; NADH levels (Jurkat cells [8]): steadily decreased in dose dependent manner
Nc1nnc(-c2cc(-c3ccc(O)cc3)on2)o1 [Inhibitor No. 30, 4-[3-(5-amino-1,3,4-oxadiazol-2-yl)isoxazol-5-yl]phenol] | 2,00±0,18% | 3,4±0,21% | – | 1,38±0,18% | 8,27±0,49% | slightly weaker inhibitions | 10 µM | total cell numbers, Caco-2 (Caco-2 cells [10]): minor dose dependent reductions in total cell numbers; lactate excretion by MDA-MB-231 cells (MDA-MB-231 cells [12]): strong inhibition; lactate excretion by COLO 829 cells (COLO 829 cells [9]; single addition, different concentrations): strongest reductions of lactate excretion
O=C(CCS(=O)(=O)c1ccccc1)Nc1nnc(-c2ccno2)o1 [Inhibitor No. 32, 3-(benzenesulfonyl)-N-(5-isoxazol-5-yl-1,3,4-oxadiazol-2-yl)propanamide] | – | – | 3,97±0,18% | – | – | – | 8 µM | lactate generation by Caco-2 cells (Caco-2 cells [13]): strong inhibition at all tested concentrations
